# Data: ChEMBL document CHEMBL1201862, “PubChem BioAssay data set” (2004)
# Calls of active or inactive are those of the source.
# Tests used:
# [1] = target: T1, Heat shock factor protein 1 (Mus musculus, UniProt P38532); test: enhancement of HSF1-driven luciferase signal – cell-based, NIH3T3, luminescence, dose retest, confirmation (AID 435004); format: functional;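 note: stress induced by proteasome inhibitor MG132 added 30 min after compound; luciferase reporter driven by HSF1 response element in NIH3T3 cells; actives raise luminescence as potentiators of the MG132 stress response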
# T1 sequence (P38532 whole entry): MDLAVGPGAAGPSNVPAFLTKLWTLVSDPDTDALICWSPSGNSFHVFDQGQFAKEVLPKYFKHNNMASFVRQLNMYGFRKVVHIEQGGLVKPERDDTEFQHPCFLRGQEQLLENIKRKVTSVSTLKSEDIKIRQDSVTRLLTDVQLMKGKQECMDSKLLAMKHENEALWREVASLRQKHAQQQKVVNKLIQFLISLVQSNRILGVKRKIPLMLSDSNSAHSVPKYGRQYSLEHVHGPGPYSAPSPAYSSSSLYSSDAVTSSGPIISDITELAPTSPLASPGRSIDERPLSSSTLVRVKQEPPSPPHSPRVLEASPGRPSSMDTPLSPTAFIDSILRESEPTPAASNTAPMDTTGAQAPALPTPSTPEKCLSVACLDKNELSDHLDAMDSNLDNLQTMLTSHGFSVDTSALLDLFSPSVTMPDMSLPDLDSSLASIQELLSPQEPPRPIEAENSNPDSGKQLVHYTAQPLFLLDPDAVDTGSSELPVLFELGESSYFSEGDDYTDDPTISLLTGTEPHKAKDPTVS
# [2] = target: Cytochrome P450 2C19 (Homo sapiens, UniProt P33261); test: Cytochrome panel assay with activity outcomes. Panel member name: p450-cyp2c19 Compounds with AC50 equal or less than 10 uM are considered active; format: functional; details: read-out: AC50
# [3] = target: Cytochrome P450 3A4 (Homo sapiens, UniProt P08684);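 note: CYP3A4 tested as one member of a cytochrome P450 panel screen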
# [4] = target: T2, Cytochrome P450 1A2 (Homo sapiens, UniProt P05177);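 note: PubChem cytochrome P450 panel assay, CYP1A2 panel member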
# T2 sequence (P05177 whole entry): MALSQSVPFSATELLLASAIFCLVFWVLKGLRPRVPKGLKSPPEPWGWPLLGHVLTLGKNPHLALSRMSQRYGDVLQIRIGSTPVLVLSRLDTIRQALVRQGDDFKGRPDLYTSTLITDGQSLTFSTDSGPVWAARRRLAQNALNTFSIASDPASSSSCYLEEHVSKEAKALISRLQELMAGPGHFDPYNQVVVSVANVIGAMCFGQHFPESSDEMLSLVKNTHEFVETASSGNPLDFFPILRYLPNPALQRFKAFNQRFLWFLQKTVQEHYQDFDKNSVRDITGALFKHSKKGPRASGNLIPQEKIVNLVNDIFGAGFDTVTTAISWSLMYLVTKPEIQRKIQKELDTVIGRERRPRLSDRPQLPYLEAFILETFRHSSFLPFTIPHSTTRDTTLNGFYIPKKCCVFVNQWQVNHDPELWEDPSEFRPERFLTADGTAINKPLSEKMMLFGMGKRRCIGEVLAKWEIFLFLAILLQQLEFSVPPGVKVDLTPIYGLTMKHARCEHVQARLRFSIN
# [5] = target: T3, Fatty acid synthase (Homo sapiens, UniProt P49327); test: inhibition of human FAS-TE enzyme activity – biochemical, kinetic fluorescence intensity, dose response (AID 624326); format: functional;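 note: rate of fluorescence rise from hydrolysis of a fluorogenic O-methyl fluorescein ester substrate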
# [6] = target: T3, Fatty acid synthase; test: inhibition of human FAS-TE enzyme activity – biochemical, endpoint fluorescence intensity, uHTS hits, dose response (AID 624327); format: functional;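 note: fluorescence from hydrolysis of an O-methyl fluorescein acyl ester substrate by the enzyme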
# [7] = non-specific 3'UTR reporter inhibition in Clone20-Shn3RL – cell-based, Renilla luciferase, cherry-picked, counter-screen for Shn3 inhibitor project, dose response (AID 624133); format: functional
# [8] = loss of viability in HepG2 cells – cell-based, CellTiter-Glo, cherry-picked, cytotoxicity control for Shn3 inhibitor project, dose response (AID 624134); format: functional
# [9] = reduction of Shn3 3'UTR-driven luciferase in osteoblasts – cell-based, Clone20 osteoblasts, firefly luciferase, cherry-picked, dose response (AID 624132); format: functional;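 note: firefly luciferase luminescence from reporter carrying the Shn3 3'UTR in osteoblasts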
# [10] = target: Cytochrome P450 2C9 (Homo sapiens, UniProt P11712)
# [11] = system: INS1; test: INS-1E survival protection against cytokine death – cell-based, luminescence, retest, dose response (AID 449756); format: functional; details: Rattus norvegicus;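 note: cell death triggered by IL-1 beta plus TNF-alpha plus IFN-gamma mixture; protective hits raise ATP signal compared with cytokine alone wells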
# [12] = target: T1, Heat shock factor protein 1; test: decrease of HSF1-responsive luciferase luminescence – cell-based, NIH3T3, dose retest, confirmation (AID 2382); format: functional;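 note: NIH3T3 fibroblasts with HSF1-driven luciferase reporter stressed by proteasome inhibitor MG132; luminescence from HSF1-driven luciferase expression after 8 hours of MG132 stress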
# [13] = microbe, parasite or virus in culture; format: functional; details: Mycobacterium tuberculosis
# [14] = NIH3T3 cell viability loss – ATP luminescence, mouse fibroblasts, counter-screen, dose response (AID 2010); format: functional, cell-based;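 note: cells exposed to compound for about 90 hours before reading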
# [15] = Trypanosoma cruzi growth suppression in host cells – NIH3T3 host cells, beta-gal luminescence, confirmation (AID 2044); format: functional, cell-based;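 note: intracellular parasites grown in NIH/3T3 mouse fibroblasts as host cells; luminescent beta-galactosidase reporter signal from transgenic T. cruzi replicating inside host cells; inhibitors lower the luminescence signal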
# [16] = cells; format: functional
# [17] = Vero E6 cell cytotoxicity, dose response, cytotoxicity control for non-replicating M. tuberculosis project, secondary assay (AID 492998); format: functional, VeroE6; details: Vero C1008
# [18] = THP-1 cell cytotoxicity, dose response, cytotoxicity control for non-replicating M. tuberculosis project (AID 489025); format: functional
# [19] = system: H9c2; test: cells; format: functional, cell-based; details: Rattus norvegicus, H9c2, Myocardium;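 note: confirmatory concentration-response retest of ultra-high-throughput screening hits for modulation of myocardial damage; cell death induced by hydrogen peroxide oxidative stress; compound pretreatment for 60 min then peroxide exposure for 2 h; potency is for protecting the cells against peroxide damage rather than for killing them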
# [20] = target: T4, RNA-binding protein pos-1 (Caenorhabditis elegans, UniProt G5EF15); test: disruptors of C. elegans POS-1 RNA interaction – biochemical, fluorescence polarization, dose response (AID 1964);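 note: purified POS-1 fused to maltose binding protein made in E. coli; potency of compounds blocking POS-1 binding to fluorescent RNA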
# T4 sequence (G5EF15 whole entry): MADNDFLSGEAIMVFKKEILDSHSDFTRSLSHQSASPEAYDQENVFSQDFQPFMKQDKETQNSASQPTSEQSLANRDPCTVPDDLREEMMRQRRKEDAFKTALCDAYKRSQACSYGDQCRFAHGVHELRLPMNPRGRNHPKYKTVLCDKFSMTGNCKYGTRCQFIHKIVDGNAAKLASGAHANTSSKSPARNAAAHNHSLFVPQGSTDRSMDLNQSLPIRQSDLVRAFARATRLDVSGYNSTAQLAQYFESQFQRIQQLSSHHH
# [21] = target: T5, Zinc finger protein mex-5 (Caenorhabditis elegans, UniProt Q9XUB2); test: potency of MEX-5 RNA-binding blockers – biochemical, C. elegans, fluorescence polarization, dose response (AID 1960)
# T5 sequence (Q9XUB2 whole entry): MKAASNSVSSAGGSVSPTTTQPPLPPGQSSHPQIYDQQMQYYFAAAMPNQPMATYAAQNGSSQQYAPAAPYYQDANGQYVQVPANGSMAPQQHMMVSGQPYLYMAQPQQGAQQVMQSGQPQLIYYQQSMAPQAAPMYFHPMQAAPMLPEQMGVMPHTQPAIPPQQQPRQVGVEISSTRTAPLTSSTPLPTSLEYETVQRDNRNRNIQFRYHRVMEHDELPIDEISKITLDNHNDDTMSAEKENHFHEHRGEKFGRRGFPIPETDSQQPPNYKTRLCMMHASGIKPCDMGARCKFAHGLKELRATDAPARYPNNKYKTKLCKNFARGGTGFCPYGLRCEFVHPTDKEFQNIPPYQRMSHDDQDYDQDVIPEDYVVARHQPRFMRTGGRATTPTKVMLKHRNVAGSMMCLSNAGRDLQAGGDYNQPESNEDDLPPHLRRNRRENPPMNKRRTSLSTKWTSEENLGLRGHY
# [22] = HIV-1 AD8 envelope cell-cell fusion blockers – cherry-pick, dose response (AID 652062); format: functional, cell-based;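 note: luciferase signal from cell-cell fusion driven by HIV-1 clade B AD8 Env; potency is for inhibitors of fusion seen as a drop in luminescence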
# T3 sequence (P49327 whole entry): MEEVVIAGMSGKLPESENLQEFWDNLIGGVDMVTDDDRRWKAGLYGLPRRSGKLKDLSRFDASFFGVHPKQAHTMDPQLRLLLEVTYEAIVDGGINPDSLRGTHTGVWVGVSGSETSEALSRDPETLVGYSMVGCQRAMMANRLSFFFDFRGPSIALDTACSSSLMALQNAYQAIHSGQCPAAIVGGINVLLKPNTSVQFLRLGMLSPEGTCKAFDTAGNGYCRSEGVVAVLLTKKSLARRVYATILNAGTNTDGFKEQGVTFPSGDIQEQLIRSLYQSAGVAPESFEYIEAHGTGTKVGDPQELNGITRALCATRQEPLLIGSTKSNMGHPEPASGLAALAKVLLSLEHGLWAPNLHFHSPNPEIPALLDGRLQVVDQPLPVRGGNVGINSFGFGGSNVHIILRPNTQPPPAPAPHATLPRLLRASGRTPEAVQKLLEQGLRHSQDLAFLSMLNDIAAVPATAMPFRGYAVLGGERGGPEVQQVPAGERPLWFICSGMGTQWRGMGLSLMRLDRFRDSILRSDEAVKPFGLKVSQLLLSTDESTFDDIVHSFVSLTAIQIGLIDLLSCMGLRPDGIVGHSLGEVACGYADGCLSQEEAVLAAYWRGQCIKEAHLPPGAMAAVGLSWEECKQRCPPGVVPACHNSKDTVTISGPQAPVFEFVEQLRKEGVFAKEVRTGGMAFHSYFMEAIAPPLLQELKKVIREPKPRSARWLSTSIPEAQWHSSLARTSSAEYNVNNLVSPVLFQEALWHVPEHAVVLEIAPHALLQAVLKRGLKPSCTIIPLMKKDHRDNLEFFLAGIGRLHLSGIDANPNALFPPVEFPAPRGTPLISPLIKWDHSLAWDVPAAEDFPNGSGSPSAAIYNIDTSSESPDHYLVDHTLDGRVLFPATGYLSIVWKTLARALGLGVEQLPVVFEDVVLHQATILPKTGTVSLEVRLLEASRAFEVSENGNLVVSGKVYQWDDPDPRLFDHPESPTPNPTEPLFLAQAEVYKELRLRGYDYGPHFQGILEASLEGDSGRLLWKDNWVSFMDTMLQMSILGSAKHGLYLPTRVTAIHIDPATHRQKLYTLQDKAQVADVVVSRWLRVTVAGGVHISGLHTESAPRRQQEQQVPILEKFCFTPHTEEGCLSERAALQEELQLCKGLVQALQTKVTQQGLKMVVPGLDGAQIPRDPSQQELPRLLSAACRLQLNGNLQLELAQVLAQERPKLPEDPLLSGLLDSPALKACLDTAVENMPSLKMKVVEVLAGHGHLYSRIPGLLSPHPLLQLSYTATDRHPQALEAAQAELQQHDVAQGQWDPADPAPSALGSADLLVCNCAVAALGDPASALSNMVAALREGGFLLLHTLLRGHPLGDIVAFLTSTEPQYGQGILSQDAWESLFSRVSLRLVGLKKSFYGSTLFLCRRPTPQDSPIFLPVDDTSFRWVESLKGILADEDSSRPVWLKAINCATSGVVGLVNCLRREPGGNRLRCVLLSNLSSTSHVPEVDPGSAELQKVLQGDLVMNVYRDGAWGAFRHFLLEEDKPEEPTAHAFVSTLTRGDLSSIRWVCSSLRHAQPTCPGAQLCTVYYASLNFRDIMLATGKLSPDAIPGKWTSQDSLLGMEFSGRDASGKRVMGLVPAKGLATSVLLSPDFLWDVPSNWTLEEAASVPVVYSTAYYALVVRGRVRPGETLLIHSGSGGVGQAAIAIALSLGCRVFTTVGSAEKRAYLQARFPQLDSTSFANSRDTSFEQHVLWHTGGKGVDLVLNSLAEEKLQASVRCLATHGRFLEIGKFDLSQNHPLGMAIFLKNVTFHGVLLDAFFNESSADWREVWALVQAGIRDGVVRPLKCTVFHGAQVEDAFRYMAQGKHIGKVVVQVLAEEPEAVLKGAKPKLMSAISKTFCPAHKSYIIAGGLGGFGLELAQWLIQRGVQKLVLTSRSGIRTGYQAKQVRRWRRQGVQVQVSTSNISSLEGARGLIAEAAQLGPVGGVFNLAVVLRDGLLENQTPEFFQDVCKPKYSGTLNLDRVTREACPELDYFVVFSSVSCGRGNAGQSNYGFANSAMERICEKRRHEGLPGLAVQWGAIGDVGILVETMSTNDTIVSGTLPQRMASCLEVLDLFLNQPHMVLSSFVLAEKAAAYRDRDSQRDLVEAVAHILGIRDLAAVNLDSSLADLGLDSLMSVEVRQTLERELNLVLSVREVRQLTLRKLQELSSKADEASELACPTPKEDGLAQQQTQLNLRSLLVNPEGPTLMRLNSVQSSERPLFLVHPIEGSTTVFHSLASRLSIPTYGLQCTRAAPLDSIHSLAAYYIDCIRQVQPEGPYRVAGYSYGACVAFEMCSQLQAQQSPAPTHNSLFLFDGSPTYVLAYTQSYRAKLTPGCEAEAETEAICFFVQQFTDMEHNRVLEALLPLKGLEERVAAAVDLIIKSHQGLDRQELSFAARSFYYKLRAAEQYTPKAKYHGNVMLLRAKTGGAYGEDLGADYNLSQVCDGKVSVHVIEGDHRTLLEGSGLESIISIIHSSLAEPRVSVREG
# Sequence of Cytochrome P450 3A4 (P08684 whole entry): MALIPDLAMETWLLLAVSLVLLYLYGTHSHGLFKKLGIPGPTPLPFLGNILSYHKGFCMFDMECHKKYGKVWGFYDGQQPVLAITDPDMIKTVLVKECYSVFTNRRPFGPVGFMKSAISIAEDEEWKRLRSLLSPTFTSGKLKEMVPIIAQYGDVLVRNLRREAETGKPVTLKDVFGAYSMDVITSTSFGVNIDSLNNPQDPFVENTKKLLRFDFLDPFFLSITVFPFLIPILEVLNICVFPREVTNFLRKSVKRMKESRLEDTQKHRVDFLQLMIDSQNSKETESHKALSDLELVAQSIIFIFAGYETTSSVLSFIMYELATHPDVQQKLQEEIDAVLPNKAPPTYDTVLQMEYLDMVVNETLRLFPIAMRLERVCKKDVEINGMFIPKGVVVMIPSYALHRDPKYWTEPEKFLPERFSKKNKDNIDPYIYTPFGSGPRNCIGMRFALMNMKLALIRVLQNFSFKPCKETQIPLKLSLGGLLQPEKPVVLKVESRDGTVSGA
# Sequence of Cytochrome P450 2C9 (P11712 whole entry): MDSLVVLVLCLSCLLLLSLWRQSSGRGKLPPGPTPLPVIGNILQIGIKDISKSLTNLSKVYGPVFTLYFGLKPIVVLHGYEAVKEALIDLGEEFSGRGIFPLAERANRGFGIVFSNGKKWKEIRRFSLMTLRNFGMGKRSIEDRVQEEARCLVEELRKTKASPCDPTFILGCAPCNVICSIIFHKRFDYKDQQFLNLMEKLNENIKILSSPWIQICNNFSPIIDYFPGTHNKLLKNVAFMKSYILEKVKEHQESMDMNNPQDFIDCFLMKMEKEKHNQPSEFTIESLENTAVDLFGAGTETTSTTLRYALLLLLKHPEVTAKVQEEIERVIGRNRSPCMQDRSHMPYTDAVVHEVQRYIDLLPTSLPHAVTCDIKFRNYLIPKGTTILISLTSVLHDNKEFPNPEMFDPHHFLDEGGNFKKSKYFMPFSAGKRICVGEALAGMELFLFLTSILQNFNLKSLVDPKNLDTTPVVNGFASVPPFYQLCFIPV
# Sequence of Cytochrome P450 2C19 (P33261 whole entry): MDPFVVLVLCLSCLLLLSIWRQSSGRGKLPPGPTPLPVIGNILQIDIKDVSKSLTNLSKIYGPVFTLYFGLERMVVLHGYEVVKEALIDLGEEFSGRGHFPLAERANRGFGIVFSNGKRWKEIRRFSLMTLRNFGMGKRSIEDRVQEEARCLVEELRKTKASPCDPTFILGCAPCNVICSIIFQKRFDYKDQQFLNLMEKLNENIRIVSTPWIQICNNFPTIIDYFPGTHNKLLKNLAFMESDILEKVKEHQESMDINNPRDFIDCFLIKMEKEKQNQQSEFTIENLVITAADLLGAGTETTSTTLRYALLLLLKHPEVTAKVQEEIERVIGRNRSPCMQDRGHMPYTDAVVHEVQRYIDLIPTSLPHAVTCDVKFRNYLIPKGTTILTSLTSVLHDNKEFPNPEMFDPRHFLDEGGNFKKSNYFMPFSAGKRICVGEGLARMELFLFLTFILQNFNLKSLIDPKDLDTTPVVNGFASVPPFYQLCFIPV
smiles,measurement,setting,value
CCOc1ccc2nc(COC(=O)c3cccc([N+](=O)[O-])c3)c(C(C)=O)[n+]([O-])c2c1,EC50,[1],> 260 µM (inactive)
O=C(Nc1ccccc1)N1CCC2(CC1)CCN(C(=O)c1ccco1)CC2,AC50,[2],39.8 µM (inconclusive)
same,AC50,[3],inconclusive
same,AC50,[4],10 µM (inconclusive)
O=C(Cn1cc(C(=O)C2CC2)c2ccccc21)NCc1ccc2c(c1)OCO2,IC50,[5],8.36 µM (active)
same,IC50,[6],14.3 µM (active)
COc1ccc(Nc2nc(N3CCCCC3)c3ccccc3n2)cc1,AC50,[7],6.45 µM (active)
same,AC50,[8],36.5 µM (active)
same,AC50,[9],2.11 µM (active)
same,AC50,[10],17.8 µM (inconclusive)
same,AC50,[3],inconclusive
same,AC50,[11],4.63 µM (active)
O=C(NC1CCCCC1)c1cnn2c(C(F)(F)F)cc(-c3ccco3)nc12,EC50,[1],> 260 µM (inactive)
COc1ccc([C@@H]2[C@@H]3C(=O)N(C(C)(C)C)C(=O)[C@@H]3[C@]3(Cc4ccccc4)C(=O)N(c4cccc(Br)c4)C(=O)N23)cc1,IC50,[5],13.7 µM (active)
same,IC50,[6],21.5 µM (inactive)
c1ccn(-c2ccc(N3CCOCC3)cc2)c1,EC50,[12],> 195 µM (not active)
same,AC50,[3],inconclusive
O=C(Oc1ccccc1)N1CCC2(CC1)CCN(c1ccccn1)CC2,AC50,[2],20 µM (inconclusive)
same,AC50,[10],31.6 µM (inconclusive)
same,AC50,[3],inconclusive
Cc1c(Cl)cccc1NC(=O)CN1CCC(C(O)(c2ccccc2)c2ccccc2)CC1,CC50,[13],> 40 µM (active)
same,EC50,[14],> 30 µM (not active)
same,EC50,[15],2.33 µM (active)
same,AC50,[3],inconclusive
O=[N+]([O-])c1cccc(NC(S)=NCCc2ccccc2)c1,IC50,[5],9.04 µM (active)
same,IC50,[6],10.1 µM (active)
Cc1cc(Br)ccc1OCC(=O)NNC(=O)c1cnccn1,IC50,[16],8.2 µM (active)
same,CC50,[17],17.8 µM (active)
same,CC50,[18],> 40 µM (active)
O=C(COc1ccc([N+](=O)[O-])cc1)N1CCc2ccccc2C1,IC50,[5],3.46 µM (active)
same,IC50,[6],6.92 µM (active)
CNc1nc(SC(C)C(=O)Nc2ccc(Cl)c(Cl)c2)nc(N2CCOCC2)n1 (configuration not stated),EC50,[1],> 260 µM (inactive)
COCOc1cc(O)c(C(=O)/C=C/c2ccccc2)c(OCOC)c1,EC50,[1],22.1 µM (active)
Cc1nc2ncnn2c(C)c1CCC(=O)N1CCN(C(=O)c2ccco2)CC1,AC50,[3],inconclusive
CC(C)(C)NC(=O)CC1C[C@H](C(=O)N2CCOCC2)[C@@]2(CCC3CCCC3)c3[nH]c4ccccc4c3CCN2C1=O (some centres not stated),IC50,[5],4.15 µM (active)
same,IC50,[6],2.31 µM (active)
O=C(O)/C(=C/c1ccc(Cl)c([N+](=O)[O-])c1)c1ccc(S(=O)(=O)N2CCCCC2)s1,IC50,[5],12.6 µM (active)
same,IC50,[6],15.4 µM (active)
Nc1c(C(=O)N/N=C/c2cccnc2)oc2nc(-c3ccccc3)cc(-c3ccco3)c12,IC50,[19],> 79 µM (inactive)
same,EC50,[20],> 300 µM (not active)
same,EC50,[21],> 300 µM (not active)
O=C(C[C@@H]1C[C@@H]2c3cc(NS(=O)(=O)c4ccc(F)cc4)ccc3O[C@@H]2[C@H](CO)O1)NCc1ccccc1F,AC50,[22],1.75 µM (active)
